Reference: patent US4001323A, “Water-soluble, non-ionizing hydroxy-containing amide derivatives of 2,4,6-triiodo-isophthalic acid” (Savac AG, priority 1974, dated 1977)
Values after ≈ are worked out from the molar mass of the structure shown.

Tests used:
[1] = Solubility in water (Table I); format: physicochemical; settings: for solubility: water
Method: The following Examples are further illustrative of this invention. All solubility values are in grams per 100 ml unless stated otherwise.

[2] = Solubility in organic solvents; format: physicochemical
Method: (§1) 10 Ml of a solution containing 10 g Compound A was stored several days at 4° C, whereby only 2.3 g of the compound was precipitated.

[3] = Storage / supersaturation stability of aqueous solutions; format: physicochemical
Method: as §1
The residue was recrystallized from aqueous methanol and consisted of 11.6 g DL-5-α,β-dihydroxypropionylamino-2,4,6-triiodo-isophtalic acid di-(1,3-dihydroxyisopropylamide) (62.5% yield). It sintered and melted at 210° - 230° C and decomposed at 260° C. It gave an Rf value of 0.15 by thin layer chromatography on silica gel with chloroform/methanol/aqueous 25% ammonia 6:3:1. It was identified by elementary analysis for carbon and iodine which yielded values of 25.70% C and 48.29% I against 25.74% and 48.00% respectively calculated for C17 H22 I3 N3 O9.

[4] = Thermal stability of aqueous solutions; format: physicochemical; set-up: key to Appearance, initial / Appearance, 30 min. / Appearance, 15 hrs.: (1): Clear solution; (2): Colorless; (3): Slightly colored; (4): Brown suspension, black sediment; settings: 400 mg I per ml, under nitrogen, 120° C
Method: For a comparison of thermal stability, aqueous solutions of Compounds A and H containing 400 mg I per ml where heated under nitrogen at 120° C. pH, iodide ion concentration and appearance were determined initially, after 30 minutes and after 15 hours.

mice [5] = test: Acute toxicity LD50 in mice (i.v., i.p., i.ce.); format: in vivo; settings: for Toxicity, LD50, i.ce.: intracerebral, 5 ml/kg, concentration varied, evaluated after 48 hours; for Toxicity, LD50, i.p.: intraperitoneal; for Toxicity, LD50, i.p. / Toxicity, LD50, i.v.: 400 mg I per ml, evaluated after 12 days; for Toxicity, LD50, i.v.: intravenous, 20 mg I per kg and minute
Method: (§2) The solutions injected for i.v., i.p., i.ci., and i.ca. toxicity tests contained 400 mg I per ml. The rate of injection was 20 mg I per kg and minute for i.v. and i.ca. toxicity. In the tests for i.ce. toxicity, the injected volume was 5ml/kg, and the concentration was varied. Results of i.v. and i.p. toxicity tests were evaluated after 12 days, results of i.ce. and i.ca. toxicity tests after 48 hours.

rabbits = test: Acute intracisternal toxicity LD50 in rabbits; format: in vivo; settings: 400 mg I per ml
Method: as §2

[6] = Viscosity of aqueous solutions; format: physicochemical
Method: Aqueous solutions of Compound A containing 300 and 400 mg iodine respectively had viscosities of 8.95 and 40.6 c.p. at 20°, 4.70 and 16.1 c.p. at 37° C. A low viscosity facilitates injection.

rats = test: Acute intracarotideal toxicity LD50 in rats; format: in vivo; settings: 400 mg I per ml, 20 mg I per kg and minute, evaluated after 48 hours
Method: as §2

mice [7] = settings: intravenous, literature; cited from earlier work
[8] = cited from earlier work
[9] = in vivo; cited from earlier work
[10] = 20° C, read-out: Solubility in water at 20° C
[11] = 40° C, read-out: Solubility in water at 40° C
[12] = 60° C, read-out: Solubility in water at 60° C

With “5-α-acetoxypropionylamino-2,4,6-triiodo-isophthalic acid di-(2,2-dimethyl-1,3-dioxolan-4-yl-methylamide)” the “Solubility in water (in words)” value [1] was “practically insoluble in water”.
In the case of C[C@H](O)C(=O)Nc1c(I)c(C(=O)NCC(O)CO)c(I)c(C(=O)NCC(O)CO)c1I (mixture of isomers) [Compound C, L-5-α-hydroxypropionylamino-2,4,6-triiodo-isophthalic acid di-(DL-2,3-dihydroxypropyl-amide)], the “Solubility in ethanol (in words)” value ([2]; ethanol) is reported as “somewhat less soluble in ethanol”, the “Solubility in water (in words)” value [1] is reported as “very easily soluble in water” and the solubility [1, 10] is reported as 157 mg/mL. The solubility [1, 11] was 210 mg/mL and the solubility [1, 12] was 400 mg/mL.
With CC(O)C(=O)Nc1c(I)c(C(=O)NCC(O)CO)c(I)c(C(=O)NCC(O)CO)c1I (mixture of isomers) [Compound D, 5-DL-α-Hydroxypropionylamino-2,4,6-triiodo-isophthalic acid di-(DL-2,3-dihydroxypropylamide)] the “Solubility in water (in words)” value [1] was “somewhat less soluble than Compound C”, the “Solubility in water at 20° C” value ([1]; 20° C) was 14 g/100 ml and the “Solubility in water at 40° C” value ([1]; 40° C) was 20 g/100 ml. For the same compound, the “Solubility in water at 60° C” value ([1]; 60° C) was 34 g/100 ml, the solubility [1, 10] was 140 mg/mL and the solubility [1, 11] was 200 mg/mL. It also gave a solubility [1, 12] of 340 mg/mL.
Compound CC(O)C(=O)Nc1c(I)c(C(=O)NC(CO)CO)c(I)c(C(=O)NC(CO)CO)c1I (racemic) [Compound B, dl-5-α-hydroxypropionylamino-2,4,6triiodo-isophthalic acid di-(1,3-dihydroxyisopropylamide)] has a solubility [1, 10] of 300 mg/mL (≈ 386 mM), a solubility [1, 11] of 300 mg/mL (≈ 386 mM) and a solubility [1, 12] of 320 mg/mL (≈ 412 mM).
For O=C(NC(CO)CO)c1c(I)c(NC(=O)C(O)CO)c(I)c(C(=O)NC(CO)CO)c1I (racemic) [DL-5-α,β-dihydroxypropionylamino-2,4,6-triiodo-isophtalic acid di-(1,3-dihydroxyisopropylamide)], the “Stability of supersaturated solutions” value ([3]; 37° C, water) was “stable for several hours at 37 °C” and the “Solubility in water (in words)” value [1] was “good solubility in warm water”.
In the case of C[C@H](O)C(=O)Nc1c(I)c(C(=O)NC(CO)CO)c(I)c(C(=O)NC(CO)CO)c1I [Compound A, L-5-α-Hydroxypropionylamino-2,4,6-triiodo-isophthalic acid di-(1,3-dihydroxyisopropylamide)], the “Appearance, 30 min.” value [4] is reported as “(1) (2)”, the “iodide ion concentration, 30 min.” value [4] is reported as 0.3 mg I' per ml and the “pH, 30 min.” value [4] is reported as 7.29. The “Appearance, 15 hrs.” value [4] was “(1) (3)”, the “iodide ion concentration, 15 hrs.” value [4] was 1.8 mg I' per ml and the “pH, 15 hrs.” value [4] was 5.15. The “Appearance, initial” value [4] was “(1) (2)”, the “iodide ion concentration, initial” value [4] was 0.15 mg I' per ml and the “pH, initial” value [4] was 7.43. The “Toxicity, LD50, i.ce.” value (mice [5]) was 1500 mg I/kg, the “Toxicity, LD50, i.p.” value (mice [5]) was 20000 mg I/kg and the “Toxicity, LD50, i.v.” value (mice [5]) was 21800 mg I/kg. The “Amount precipitated from aqueous solution on storage” value ([3]; 10 ml of solution containing 10 g, several days at 4° C) was 2.3 g, the “Solubility in ethanol (in words)” value ([2]; ethanol) was “miscible with boiling ethanol” and the Solubility in methanol ([2]; methanol) was “practically unlimited”. For the same compound, the solubility ([2]; organic solvent or mixture, ethanol, room temperature) was roughly 100 mg/mL (≈ 129 mM), the “Toxicity, LD50, i.ci.” value (rabbits) was 250 mg I/kg and the “Viscosity of aqueous solution, 300 mg iodine, 20° C” value ([6]; 300 mg iodine, 20° C) was 8.95 c.p. For the same compound, the “Viscosity of aqueous solution, 300 mg iodine, 37° C” value ([6]; 300 mg iodine, 37° C) was 4.70 c.p, the “Viscosity of aqueous solution, 400 mg iodine, 20° C” value ([6]; 400 mg iodine, 20° C) was 40.6 c.p and the “Viscosity of aqueous solution, 400 mg iodine, 37° C” value ([6]; 400 mg iodine, 37° C) was 16.1 c.p. For the same compound, the “Solubility in water (in words)” value [1] was “very readily soluble in water”, the solubility [1, 10] was 890 mg/mL (≈ 1150 mM) and the solubility [1, 11] was 1040 mg/mL (≈ 1340 mM). For the same compound, the solubility [1, 12] was 1150 mg/mL (≈ 1480 mM) and the “Toxicity, LD50, i.ca.” value (rats) was 6500 mg I/kg.
For CC(=O)Nc1c(I)c(C(=O)NCC(O)CO)c(I)c(C(=O)NCC(O)CO)c1I (stereo not shown) [Compound F, 5-acetylamino:2,4,6-triiodo-isophthalic acid di-(2,3-dihydroxypropylamide), reference compound], the “Solubility in water (in words)” value [1] was “poor solubility”, the solubility [1, 10] was 5 mg/mL (≈ 6.69 mM) and the solubility [1, 11] was 8 mg/mL (≈ 10.7 mM). It also gave a solubility [1, 12] of 15 mg/mL (≈ 20.1 mM).
In the case of CC(=O)Nc1c(I)c(C(=O)N[C@H]2C(O)O[C@H](CO)[C@@H](O)[C@@H]2O)c(I)c(N(C)C(C)=O)c1I (stereo partly shown) [Compound H, 3-acetylamino-5-N-methyl-acetylamino-2,4,6-triiodobenzoyl-glucosamine, reference compound], the “i.v. LD50 in mice (F.L. Weitl, 170th Am. Chem. Soc. meeting)” value (mice [7]) is listed as 23.8 g/kg, the “i.v. LD50 in mice (F.L. Weitl, 170th Am. Chem. Soc. meeting), as iodine” value (mice [7]) is listed as 11400 mg I per kg and the “Appearance, 30 min.” value [4] is listed as “(3)”. For the same compound, the “iodide ion concentration, 30 min.” value [4] was 1.71 mg I' per ml, the “pH, 30 min.” value [4] was 6.45 and the “Appearance, 15 hrs.” value [4] was “(4)”. For the same compound, the “iodide ion concentration, 15 hrs.” value [4] was 40.60 mg I' per ml, the “pH, 15 hrs.” value [4] was 2.65 and the “Appearance, initial” value [4] was “(1)”. The “iodide ion concentration, initial” value [4] was 0.66 mg I' per ml, the “pH, initial” value [4] was 6.54 and the “Solubility in water (in words, known compounds)” value [8] was “very soluble in water”. For the same compound, the “Toxicity, LD50, i.ce.” value (mice [5]) was 1400 mg I/kg, the “Toxicity, LD50, i.p.” value (mice [5]) was 4800 mg I/kg and the “Toxicity, LD50, i.v.” value (mice [5]) was 10200 mg I/kg. For the same compound, the “Toxicity, LD50, i.ci.” value (rabbits) was 100 mg I/kg, the solubility [1, 10] was roughly 800 mg/mL (≈ 1010 mM) and the “Toxicity (in words, known compound)” value [9] was “relatively non-toxic”.
For O=S(=O)(CI)NC(CO)CO [Compound I, iodomethanesulfonic acid αγ-dihydroxyisopropylamide], the “Toxicity, LD50, i.ce.” value (mice [5]) was 385 mg I/kg, the “Toxicity, LD50, i.v.” value (mice [5]) was 4700 mg I/kg and the “Toxicity, LD50, i.ci.” value (rabbits) was 89 mg I/kg.
With CNC(=O)c1c(I)c(NC(=O)CCCCC(=O)Nc2c(I)c(C(=O)O)c(I)c(C(=O)NC)c2I)c(I)c(C(=O)O)c1I [Compound K, 5,5'-adipoyldiimino-bis-(2,4,6-triiodo-N-methyl-isophthalamic acid)] the “Toxicity, LD50, i.ce.” value (mice [5]) was 280 mg I/kg, the “Toxicity, LD50, i.v.” value (mice [5]) was 5500 mg I/kg and the “Toxicity, LD50, i.ci.” value (rabbits) was 37 mg I/kg.
In the case of CC(=O)Nc1c(I)c(C(=O)NC(CO)CO)c(I)c(C(=O)NC(CO)CO)c1I [E, 5-acetylamino-2,4,6-triiodo-isophthalic acid di-(1,3-dihydroxisopropylamide), reference compound], the “Solubility in water (in words)” value [1] is reported as “poor solubility”, the solubility [1, 10] is reported as 2 mg/mL (≈ 2.68 mM) and the solubility [1, 12] is reported as 5 mg/mL (≈ 6.69 mM).
With CC(=O)Nc1c(I)c(C(=O)N(C)CC(O)CO)c(I)c(C(=O)N(C)CC(O)CO)c1I (stereo not shown) [G, 5-acetylamino-2,4,6-triiodo-isophthalic acid di-(N-methyl-2,3-dihydroxypropylamide)] the “Toxicity, LD50, i.ce.” value (mice [5]) was 820 mg I/kg, the “Toxicity, LD50, i.v.” value (mice [5]) was 15700 mg I/kg and the “Toxicity, LD50, i.ci.” value (rabbits) was 81 mg I/kg. The solubility [1, 10] was 550 mg/mL (≈ 710 mM).
